Where two headings read alike, the source gives them in different places.
Key:
[1] = molecular target: Cys242 in human PIK3CA (157-299) (Homo sapiens (Human), UniProt P42336); experiment: Covalent modification assay using MALDI-TOF MS; type: biochemical; conditions: 4 h reaction time point; 1 μM protein target, 1:5 protein to compound ratio (compounds 853-1279)
Procedure, shortened: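 PIK3CA (157-299) at 3.33 μM or 1 μM in 20 mM HEPES, 150 mM NaCl, 2 mM MgCl2, pH 7.3 was incubated with compound (from 10 mM DMSO stocks) in the dark at room temperature for 15 min, 30 min, 2 h or 4 h. Linear-mode MALDI-TOF peak heights gave percent modification.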

pAKT in BT474 cells = experiment: Cell-based pAKT HTRF assay in BT474 cells; conditions: BT474 cells, 4 hr incubation, Compounds 10-999, read-out: pAKT inhibition IC50 in BT474 cells
Procedure, shortened: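 9-pt curve, top 3 μM, 3-fold steps, 0.25% DMSO; 4 hr compound exposure. Lysis, then HTRF with d2/Eu Cryptate antibody pair, 4–24 h RT. Ex 320 nm, Em 615 nm.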

Cys242 in human PIK3CA (157-299), sequence (P42336 157-299): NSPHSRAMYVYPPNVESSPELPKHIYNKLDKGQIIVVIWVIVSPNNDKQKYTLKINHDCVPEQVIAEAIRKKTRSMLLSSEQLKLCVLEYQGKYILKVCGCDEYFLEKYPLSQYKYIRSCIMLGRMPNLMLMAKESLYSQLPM

SMILES	IC50 (pAKT in BT474 cells; Homo sapiens, BT-474)	IC50 (pAKT in BT474 cells)	% of modification [1]
C=CC(=O)N1CCn2nc(-c3nc(-c4ccc(N(C)C)nc4)c4ccsc4c3-c3c(F)cc(F)cc3OCCO)cc2[C@@H]1C [Compound 957, 1-((S)-2-((S)-7-(2,4-difluoro-6-(2-hydroxyethoxy)phenyl)-4-(6-(dimethylamino)pyridin-3-yl)thieno[3,2-c]pyridin-6-yl)-4-methyl-6,7-dihydropyrazolo[1,5-a]pyrazin-5(4H)-yl)prop-2-en-1-one]	< 0.1 µM		A (percent of modification of PIK3CA protein ≥75%)
C=CC(=O)N1CCn2nc(-c3nc(-c4ccnc(N(C)C)c4)c4ccsc4c3-c3c(F)cc(F)cc3OCCO)cc2C1C (stereo not shown) [Compound 959]		< 0.1 µM	A (percent of modification of PIK3CA protein ≥75%)
C=CC(=O)N1CCc2ncc(-c3nc(-c4ccc5c(c4)CNC(=O)C5)c4ccsc4c3-c3c(F)cc(F)cc3OCCOC)cc2C1 [Compound 963]		< 0.1 µM	A (percent of modification of PIK3CA protein ≥75%)
C=CC(=O)N1Cc2cc(-c3nc(-n4ccccc4=O)c4ccsc4c3-c3c(F)cc(F)cc3OCCOC)nn2C[C@H]1C [Compound 964, 1-[7-[2,4-difluoro-6-(2-methoxyethoxy)phenyl]-6-[(6R)-6-methyl-5-prop-2-enoyl-6,7-dihydro-4H-pyrazolo[1,5-a]pyrazin-2-1]thieno[3,2-c]pyridin-4-yl]pyridin-2-one]	< 0.1 µM		A (percent of modification of PIK3CA protein ≥75%)
C=CC(=O)N1CCn2nc(-c3nc(-c4ccnc(N(C)C)c4)c4ccsc4c3-c3c(F)cc(F)cc3OCCOC)cc2[C@@H]1C [Compound 965]		0.1 to 1 µM	A (percent of modification of PIK3CA protein ≥75%)
C=CC(=O)N1CCc2nc(-c3nc(-c4ccc(N5CCN(C)CC5)nc4)c4ccsc4c3-c3c(F)cc(F)cc3OCCOC)sc2C1 [Compound 976]		< 0.1 µM	A (percent of modification of PIK3CA protein ≥75%)
C=CC(=O)N1CCc2nc(-c3nc(-c4ccc5c(c4)CCNC5=O)c4ccsc4c3-c3c(F)cc(F)cc3OCCOC)sc2C1 [Compound 977]		0.1 to 1 µM	A (percent of modification of PIK3CA protein ≥75%)
C=CC(=O)N1CCc2nc(-c3nc(-c4ccc5nncn5c4)c4ccsc4c3-c3c(F)cc(F)cc3OCCOC)sc2C1 [Compound 978]		< 0.1 µM	A (percent of modification of PIK3CA protein ≥75%)
C=CC(=O)N1CCn2nc(-c3nc(-c4ccc(=O)n(CC(F)F)c4)c4ccsc4c3-c3c(F)cc(F)cc3OCCO)cc2C1C (stereo not shown) [Compound 981]		< 0.1 µM	A (percent of modification of PIK3CA protein ≥75%)
C=CC(=O)N1CCn2nc(-c3nc(-c4ccc(N(C)C)nc4)c4ccsc4c3-c3c(F)cc(F)cc3OCCOC)cc2C1C (stereo not shown) [Compound 982]		< 0.1 µM	A (percent of modification of PIK3CA protein ≥75%)
C=CC(=O)N1CCn2nc(-c3nc(-c4cnn(C)c(=O)c4)c4ccsc4c3-c3c(F)cc(F)cc3OCCOC)cc2C1C (stereo not shown) [Compound 984]		< 0.1 µM	A (percent of modification of PIK3CA protein ≥75%)
C=CC(=O)N1CCn2nc(-c3nc(-c4ccn5ncnc5c4)c4ccsc4c3-c3c(F)cc(F)cc3OCCOC)cc2C1C (stereo not shown) [Compound 985]		< 0.1 µM	A (percent of modification of PIK3CA protein ≥75%)
C=CC(=O)N1CCn2nc(-c3nc(-c4ccn(C)c(=O)c4)c4ccsc4c3-c3c(F)cc(F)cc3OCCOC)cc2C1C (stereo not shown) [Compound 986]		< 0.1 µM	A (percent of modification of PIK3CA protein ≥75%)
C=CC(=O)N1CCn2nc(-c3nc(-c4ccc(=O)n(C(C)C)c4)c4ccsc4c3-c3c(F)cc(F)cc3OCCOC)cc2C1C (stereo not shown) [Compound 987]		< 0.1 µM	A (percent of modification of PIK3CA protein ≥75%)
C=CC(=O)N1CCn2nc(-c3nc(-c4ccc(=O)n(CC(F)F)c4)c4ccsc4c3-c3c(F)cc(F)cc3OCCOC)cc2C1C (stereo not shown) [Compound 988]		< 0.1 µM	A (percent of modification of PIK3CA protein ≥75%)
C=CC(=O)N1CCn2nc(-c3nc(-c4ccc(CN(C)C)cc4)c4ccsc4c3-c3c(F)cc(F)cc3OCCOC)cc2C1C (stereo not shown) [Compound 991]		< 0.1 µM	A (percent of modification of PIK3CA protein ≥75%)
C=CC(=O)N1CCn2nc(-c3nc(-c4cnn(C5CN(C)C5)c4)c4ccsc4c3-c3c(F)cc(F)cc3OCC(C)O)cc2C1C (stereo not shown) [Compound 992]		< 0.1 µM	A (percent of modification of PIK3CA protein ≥75%)
C=CC(=O)N1CCn2nc(-c3nc(-c4ccc(OCCN(C)C)cc4)c4ccsc4c3-c3c(F)cc(F)cc3OCCOC)cc2C1C (stereo not shown) [Compound 993]		< 0.1 µM	A (percent of modification of PIK3CA protein ≥75%)

Further lines, with some results ahead:

IC50 (pAKT in BT474 cells; Homo sapiens, BT-474)	IC50 (pAKT in BT474 cells)	SMILES	% of modification [1]
	< 0.1 µM	C=CC(=O)N1CCn2nc(-c3nc(-c4ccnc(N(C)C)c4)c4ccsc4c3-c3c(F)cc(F)cc3OCCO)cc2C1C (stereo not shown) [Compound 960]	A (percent of modification of PIK3CA protein ≥75%)
	0.1 to 1 µM	C=CC(=O)N1CCn2nc(-c3nc(-c4cnc5c(c4)CNC5=O)c4ccsc4c3-c3c(F)cc(F)cc3OCCO)cc2C1C (stereo not shown) [Compound 961]	A (percent of modification of PIK3CA protein ≥75%)
	< 0.1 µM	C=CC(=O)N1CCn2nc(-c3nc(-c4ccc5c(c4)CN(C)C(=O)C5)c4ccsc4c3-c3c(F)cc(F)cc3OCCO)cc2[C@H]1C [Compound 973]	A (percent of modification of PIK3CA protein ≥75%)
	0.1 to 1 µM	C=CC(=O)N1CCn2nc(-c3nc(-c4ccc5c(c4)CCN(C)C5=O)c4ccsc4c3-c3c(F)cc(F)cc3OCCOC)cc2[C@@H]1C [Compound 974]	D (percent of modification <25%)
	< 0.1 µM	C=CC(=O)N1CCn2nc(-c3nc(-c4ccc5c(c4)CN(C)C(=O)C5)c4ccsc4c3-c3c(F)cc(F)cc3OCCOC)cc2[C@@H]1C [Compound 975]	D (percent of modification <25%)
	< 0.1 µM	C=CC(=O)N1CCn2nc(-c3nc(-c4ccc5ncc(=O)n(C)c5c4)c4ccsc4c3-c3c(F)cc(F)cc3OCCO)cc2[C@H]1C [Compound 979]	A (percent of modification of PIK3CA protein ≥75%)
	< 0.1 µM	C=CC(=O)N1CCn2nc(-c3nc(-c4ccc(=O)n(C(C)C)c4)c4ccsc4c3-c3c(F)cc(F)cc3OCCO)cc2[C@H]1C [Compound 980]	A (percent of modification of PIK3CA protein ≥75%)
	< 0.1 µM	C=CC(=O)N1CCn2nc(-c3nc(-c4ccc5c(c4)CN(C)C(=O)C5)c4ccsc4c3-c3c(F)cc(F)cc3OCCOC)cc2C1C (stereo not shown) [Compound 983]	A (percent of modification of PIK3CA protein ≥75%)
	< 0.1 µM	C=CC(=O)N1CCn2nc(-c3nc(-c4ccc5c(c4)NC(=O)C5)c4ccsc4c3-c3c(F)cc(F)cc3OCCOC)cc2C1C (stereo not shown) [Compound 989]	A (percent of modification of PIK3CA protein ≥75%)
	0.1 to 1 µM	C=CC(=O)N1CCn2nc(-c3nc(-c4ccc5c(c4)CCN(C)CC5)c4ccsc4c3-c3c(F)cc(F)cc3OCCOC)cc2C1C (stereo not shown) [Compound 994]	D (percent of modification <25%)
	< 0.1 µM	C=CC(=O)N1CCn2nc(-c3nc(-c4ccc5c(c4)CCN(C)C5=O)c4ccsc4c3-c3c(F)cc(F)cc3OCCO)cc2C1C (stereo not shown) [Compound 995]	A (percent of modification of PIK3CA protein ≥75%)

Reference: patent US20250230138A1, “COMPOUNDS HAVING A T-STRUCTURE FORMED BY AT LEAST FOUR CYCLES FOR USE IN THE TREATMENT OF CANCER AND OTHER INDICATIONS” (TheRas, Inc., priority 2022, published 2025)
